Measurements published in patent publication US20050130252A1, “Stabilized susceptibility tests of aerobic pathogens” (Wyeth Holdings Corporation, priority 2003, published 2005).
≈ marks a conversion by molar mass, not a printed value. Read-outs that look alike come from different tables or passages of the source.

Legend:
E. coli ATCC 25922 = assay: Broth microdilution MIC; assay type: cell-based, Escherichia coli; conditions: for MIC: Escherichia coli, ATCC25922, read-out: Minimal Inhibitory Concentration, E. coli ATCC 25922
Procedure: The process for preparing susceptibility test medium are the following steps: • a. Preparing Mueller Hinton Broth II medium by adding 22 grams powdered media to 1.0 liter distilled water; • b. Autoclaving (121° C., 15 psi, 15 minutes) and cooling the medium; • c. Adding Oxyrase® up to about 10% final volume and keeping at 35-37° C. in an incubator for 30 minutes; • d. Adding about 50 μL to each well of a 96 well microtiter plate; • e. Weighing drug and adding broth to drug to bring up to about (standard 128 μg/ml); • f. Adding 50 μL of the drug to the first column of the titer plate; • g. Diluting by two-fold serial diluting across or down the plate. • h. Preparing a Prompt™ inoculum at 10^8 CFU/ml; • i. Diluting inoculum 1:100 in the broth at […] in 9.9 ml (1:100) is 10^6 colony forming units (CFU) forming the adjusted inoculum; • j. Adding 50 μL of the adjusted inoculum to the wells of the microtiter plate; • k. Incubating the plates at 35-37° C. for 18-22 hours; and • l. Reading, with the unaided eye, the MIC.
(§1) The in vitro activities of tigecycline and control antibiotics were determined by the broth microdilution method as recommended by the NCCLS. (National Committee for Clinical Laboratory Standards, 2003. Methods for Dilution Antimicrobial Susceptibility Tests for Bacteria That Grow Aerobically; Approved Standards: M7-A6, Sixth ed, vol. 23., National Committee for Clinical Laboratory Standards Wayne, Pa.) was used for the standard procedures. MBH with 5% lysed horse blood was used for testing S. pneumoniae and Haemophilus Test Medium was used for testing H. influenzae. Oxyrase® (Oxyrase Inc, Mansfield, Ohio) was used according to the manufacturer's instructions by adding 1 ml of Oxyrase® to 50 ml of media. Media age studies were performed by preparing MHB in multiple flasks, then storing the media under various conditions. MICs were usually performed in duplicate on each day of testing. Storage under anaerobic conditions was conducted in an anaerobic chamber (MACS MG 1000, Don Whitley Scientific LTD). The pH of the media was determined by pH meter (Corning 430). A comparison of the in vitro activity of tigecycline by agar and broth dilution methodolgies with and without Oxyrase® against clinical isolates is shown in Table 1.

[1] = system: Enterococcus faecalis GC2267 tet(L) + (M) + (S); assay: Agar dilution in vitro activity; assay type: cell-based; conditions: E. faecalis GC2267 tet(L) + (M) + (S)
Procedure: as §1

[2] = system: Staphylococcus aureus GC1079 tet(K); assay: Agar dilution in vitro activity; assay type: cell-based; conditions: S. aureus GC1079 tet(K)
Procedure: as §1

ATCC reference strains = assay: Broth microdilution MIC, reference strains taken together; assay type: cell-based
Procedure: The MICs for TGC were determined under various conditions by broth microdilution using NCCLS procedures. The MHB was stored at 2° C., room temperature, anaerobically and with the addition of Oxyrase® to determine the effect of various conditions. Time Kill kinetics was used to confirm MIC differences observed with the broth microdilution for aged and fresh media results.
as §1
To determine the effect of media age on the in vitro activity of tigecycline, MHB was prepared and stored at room temperature or 2° C. for 28 days. […] The aging of the media was slowed somewhat in the media stored at […] compared to the media stored at room temperature.

[3] = Table 8, E. coli ATCC 25922, Mueller Hinton Broth + Oxyrase, n = 240
[4] = Table 8, E. coli ATCC 25922, Mueller Hinton Broth, n = 320
[5] = Table 9, E. coli ATCC 25922, Mueller Hinton Broth + Oxyrase, n = 33
[6] = Table 9, E. coli ATCC 25922, Mueller Hinton Broth, n = 90

## CN(C)c1cc(NC(=O)CNC(C)(C)C)c(O)c2c1C[C@H]1C[C@H]3[C@H](N(C)C)C(O)=C(C(N)=O)C(=O)[C@@]3(O)C(O)=C1C2=O [Tigecycline, tigecycline]
E. coli ATCC 25922; Mueller Hinton Broth II (Fresh)
  MIC: 0.06 to 0.25 µg/mL (≈ 0.102 to 0.427 µM)
E. coli ATCC 25922; Mueller Hinton Broth II (MHB II)
  MIC: 0.12 to 0.25 µg/mL (≈ 0.205 to 0.427 µM)
E. coli ATCC 25922; No Oxyrase
  MIC: 0.12 µg/mL (≈ 0.205 µM)
E. coli ATCC 25922; media Aged Anaerobic, N = 4
  MIC: 0.03 to 0.06 µg/mL (≈ 0.0512 to 0.102 µM)
E. coli ATCC 25922; [3]
  Number of Occurrences of MIC 0.06 ug/ml: 130
  Number of Occurrences of MIC 0.12 ug/ml: 103
  Number of Occurrences of MIC 0.25 ug/ml: 5
  Number of Occurrences of MIC 1 ug/ml: 2
E. coli ATCC 25922; [4]
  Number of Occurrences of MIC 0.12 ug/ml: 24
  Number of Occurrences of MIC 0.25 ug/ml: 210
  Number of Occurrences of MIC 0.5 ug/ml: 23
  Number of Occurrences of MIC 1 ug/ml: 58
  Number of Occurrences of MIC 2 ug/ml: 4
  Number of Occurrences of MIC 4 ug/ml: 1
E. coli ATCC 25922; [5]
  Number of Occurrences of MIC 0.03 ug/ml: 3
  Number of Occurrences of MIC 0.06 ug/ml: 13
  Number of Occurrences of MIC 0.12 ug/ml: 14
  Number of Occurrences of MIC 0.25 ug/ml: 3
E. coli ATCC 25922; [6]
  Number of Occurrences of MIC 0.06 ug/ml: 1
  Number of Occurrences of MIC 0.12 ug/ml: 15
  Number of Occurrences of MIC 0.25 ug/ml: 47
  Number of Occurrences of MIC 0.5 ug/ml: 27
[1]; Oxyrase (10%)
  In Vitro Activity of Tigecycline: 0.12
[1]; no Oxyrase
  In Vitro Activity of Tigecycline: 0.25
[2]; Oxyrase (10%)
  In Vitro Activity of Tigecycline: 0.25
[2]; no Oxyrase
  In Vitro Activity of Tigecycline: 0.5
ATCC reference strains; ATCC reference organisms, MHB stored 28 days, Table 4
  Increase in the MICs over the four week period of media storage: 3 to 4 dilution
ATCC reference strains; Table 3
  MICs in aged media supplemented with Oxyrase compared with fresh media: nearly identical to those determined in fresh media
  MICs in fresh media supplemented with Oxyrase compared with unsupplemented fresh media: not significantly different
ATCC reference strains; Table 6
  MICs in commercially prepared media and media aged 2 weeks at RT under room air higher than in freshly prepared media: 1-4 dilutions
  MICs in media stored under anaerobic conditions compared with fresh media: nearly identical to the results obtained in fresh media
ATCC reference strains; reference strains
  More active in freshly prepared media than in commercially prepared and aged media: 2 to 3 dilution
ATCC reference strains; reference strains, addition of Oxyrase
  MIC: 0.06 to 0.25 µg/mL (≈ 0.102 to 0.427 µM)
ATCC reference strains; reference strains, aged medium stored under anaerobic conditions prior to testing
  MIC: 0.03 to 0.12 µg/mL (≈ 0.0512 to 0.205 µM)
ATCC reference strains; reference strains, commercially prepared and aged (7 day old) media from powder
  MIC: 0.12 to 0.25 µg/mL (≈ 0.205 to 0.427 µM)
ATCC reference strains; reference strains, freshly prepared media
  MIC: 0.03 to 0.12 µg/mL (≈ 0.0512 to 0.205 µM)
